The values that follow are results of earlier work, collected in patent US20150291756A1, “PROCESS FOR THE PRODUCTION OF RIGID FOAMED OBJECTS MADE OF POLYMER MATERIALS” (priority 2013, published 2015).

For data set [1] the following is noted: substance as such.
The test system of another data set is rats. To be noted: 4-hour exposure, decomposition residues of the diazocompound (TSMN for AIBN).
The conditions of data set [2]: toxicological studies.
The conditions of data set [3]: recommended by OSHA, ACGIH, NIOSH.
The test system of the next data set is human. The settings on record: human inhalative exposure; BASF Risk Assessment study.

Where two headings read alike, the source gives them in different places.

Regarding `CCC(C)(C#N)N=NC(C)(C#N)CC` (stereo not shown) [AMBN, 2,2′-Azobis(2-methylbutanenitrile)], the “EU Hazard Classification” value in data set [1] is given as “Harmful”. Also, the “Approximate Lethal Concentration Values by inhalation of its residues (ALC)” value with rats is 8.7 mg/L.
On to `NC(=O)N=NC(N)=O` [ADC, Azodicarbonamide], for which the “carcinogenic and genotoxic activity” value in data set [2] was “carcinogenic and genotoxic activity”.
As for `CC(C)(C#N)C(C)(C)C#N` [TMSN, 2,2,3,3-tetramethylbutanedinitrile], the “occupational permissible exposure limit” value is given as 0.5 ppm in data set [3] and 3 mg/m^3 in data set [3] (equivalent of the ppm value). Besides, the “tentative Derived No Effect Level (DNEL)” value in the data set on human was 25 μg/m^3. Also, in the data set on rats, the “Approximate Lethal Concentration Values by inhalation of its residues (ALC)” value is recorded as 0.1 mg/L.
